Common to all, as to assay type: cell-based, human
One test concerns T47D cells. Description: Dose response assay, ATPlite viability, four days. Particulars: four days of treatment, ATP viability. Here is the method: (§1) Cells were seeded in white 96-well plates (Costar, Tewksbury, MA, USA) in 100 μL of their respective media at varying densities to achieve 80% to 90% confluency after five days in culture. The compounds dissolved in DMSO were diluted in their corresponding media containing 2% FBS and an EP Motion 5075 (Eppendorf North America, Hauppauge, NY, USA) liquid handler was utilized to perform a serial dilution. […] After the cells were cultured for 24 hours, the media were aspirated and the cells were treated with the compounds and vehicle controls in triplicate. After four days of treatment, viability was determined utilizing the ATPlite 1step assay system (Perkin Elmer, Waltham, MA, USA) according to the manufacturer's instructions. Luminescence measurements were acquired utilizing a Perkin Elmer 2104 EnVision plate reader. Raw luminescence values were normalized to the DMSO vehicle control wells.
On the technique in general: ATP-based viability assays read luminescence as a measure of living cells.

The subject of another test is PE1008032 cells. Description: Dose response assay, ATPlite viability, four days. Particulars: PE1008032, four days of treatment, ATP viability. On the procedure: as §1
The next test deals with PE1007070 cells. Description: Dose response assay, ATPlite viability, four days. Particulars: PE1007070, four days of treatment, ATP viability. On the procedure:
as §1

In test [1] the test system is MCF-7 cells. Nature of the test: Dose response assay, ATPlite viability, four days. The conditions noted are these: MCF-7, four days of treatment, ATP viability. Here is the method:
as §1

A further test relates to MDA-MB-231 cells. Nature of the test: Dose response assay, ATPlite viability, four days. Particulars: MDA-MB-231, four days of treatment, ATP viability. On the procedure: as §1
In another test the test system is PE904557a cells. Nature of the test: Dose response assay, ATPlite viability, four days. Particulars: four days of treatment, ATP viability, N/A = data could not be fitted. On the procedure: as §1
Test [2] has as its system MCF-7 cells. Description: Pan-caspase inhibitor effect on C-6 induced cell death. The conditions noted are these: data not shown.
The next test relates to LC3A/B-II. Description: Western blot for LC3A/B-II (autophagy). The conditions noted are these: most cells, 50 μM, 24 hours. On the procedure: Cells were lysed in cold radioimmunoprecipitation assay buffer (50 mM Tris HCl, 150 mM NaCl, 0.1% sodium dodecyl sulfate (SDS), 0.5% sodium deoxycholate, 1% Triton X-100, pH = 8.0) supplemented with protease inhibitor cocktail (Sigma), phosphatase inhibitor cocktail 2 (Sigma) and 1 mM dithiothreitol (DTT) (Sigma). The lysate was sonicated for 30 seconds using a 450 Sonifier (Branson Ultrasonics, Danbury, CT, USA) and was centrifuged at 14,000 RPM for five minutes at 4°C. The protein concentration was determined using the BCA protein assay kit (Peirce, Rockford, IL, USA) and the samples were boiled for five minutes with 4× SDS Laemmli buffer. Equal amounts of protein were resolved on SDS polyacrylamide gels and transferred to an Immobilon-FL PVDF membrane (EMD Millipore). Blots were blocked in Odyssey Blocking Buffer (LI-COR, Lincoln, NE, USA) for one hour at room temperature, stained with primary antibodies overnight at 4°C, washed, and stained with IR800CW or IR680 anti-mouse or rabbit secondary antibodies (LI-COR) for one hour at room temperature. Blots were imaged with the Odyssey Infrared Imaging System (LI-COR).
Background: Immunoblotting shows a protein as a band on a membrane.

[3] abbreviates: Homo sapiens, 96 h, N/A = data could not be fitted.

The structures appear in SMILES notation. pEC50: −log10 of the molar value. Where a name gives a salt, the structure may show the parent alone. Peptide text beside a SMILES is read from it. * marks the point of attachment. Cbz = O=C(OCc1ccccc1)*; CH2F = FC*

For the compound `C=CCNC1=C2C[C@@H](C)C[C@H](OC)[C@H](O)[C@@H](C)/C=C(\C)[C@H](OC(N)=O)[C@@H](OC)/C=C\C=C(/C)C(=O)NC(=CC1=O)C2=O` [17-AAG, 17-(allylamino)-17-demethoxygeldanamycin], the pEC50 (commonly the negative decadic logarithm of the EC50, by convention in mol/L) is 5.85 with T47D cells; 5.78 in the test with PE1008032 cells; 5.94 with PE1007070 cells; 6.06 with MCF-7 cells [1]; 5.82 in the test on MDA-MB-231 cells; 7.43 in the test with PE904557a cells.

In the case of `CC(C)C[C@H](NC(=O)[C@H](Cc1ccccc1)NC(=O)c1cnccn1)B(O)O` [Bortezomib, bortezomib], the negative logarithm of the EC50 (pEC50) with T47D cells (Homo sapiens, 96 h) was 7.48; with PE1008032 cells (setting [3]), 8.48; in the test on PE1007070 cells (setting [3]), 7.84; with MCF-7 cells [1] (Homo sapiens, MCF7, 96 h), 8.24; in the test with MDA-MB-231 cells (Homo sapiens, 96 h) it was 7.46; in the test with PE904557a cells (Homo sapiens, 96 h) it was 7.49.

As for `N.N.[Cl][Pt][Cl]` [Cisplatin, cis-diammineplatinum (II) dichloride], the pEC50 with T47D cells is 4.30; with PE1008032 cells, 4.71; in the test with PE1007070 cells it was 5.00; with MCF-7 cells [1] it was 5.06; in the test with MDA-MB-231 cells, 5.16.

As to `COc1cccc2c1C(=O)c1c(O)c3c(c(O)c1C2=O)C[C@@](O)(C(=O)CO)C[C@@H]3O[C@H]1C[C@H](N)[C@H](O)[C@H](C)O1` [Doxorubicin, doxorubicin hydrochloride], the pEC50 in the test with T47D cells (Homo sapiens, 96 h) was 6.72; in the test on PE1008032 cells (setting [3]) it was 6.46; in the test on PE1007070 cells (setting [3]), 6.17; with MCF-7 cells [1] (Homo sapiens, MCF7, 96 h) it was 6.58; in the test with MDA-MB-231 cells (Homo sapiens, 96 h), 6.96; with PE904557a cells (Homo sapiens, 96 h), 6.13.

On to `Nc1ccn([C@@H]2O[C@H](CO)[C@@H](O)C2(F)F)c(=O)n1` [Gemcitabine, gemcitabine hydrochloride], for which the pEC50 in the test on T47D cells (Homo sapiens, 96 h) is 8.20; with MCF-7 cells [1] (Homo sapiens, MCF7, 96 h), 8.56; in the test on MDA-MB-231 cells (Homo sapiens, 96 h), 8.02.

`Cc1[nH]c2ccccc2c1CCNCc1ccc(/C=C/C(=O)NO)cc1` [LBH589, panobinostat]: the pEC50 is 7.51 in the test with T47D cells (Homo sapiens, 96 h); 7.86 in the test on PE1008032 cells (setting [3]); 6.73 in the test with PE1007070 cells (setting [3]); 7.67 with MCF-7 cells [1] (Homo sapiens, MCF7, 96 h); 7.64 with MDA-MB-231 cells (Homo sapiens, 96 h); 7.04 with PE904557a cells (Homo sapiens, 96 h).

On to `CC(=O)O[C@H]1C(=O)[C@@]2(C)[C@H]([C@H](OC(=O)c3ccccc3)[C@]3(O)C[C@H](OC(=O)[C@H](O)[C@@H](NC(=O)c4ccccc4)c4ccccc4)C(C)=C1C3(C)C)[C@]1(OC(C)=O)CO[C@@H]1C[C@@H]2O` [Taxol, paclitaxel], for which the pEC50 in the test on T47D cells (Homo sapiens, 96 h) is 7.86; in the test with MCF-7 cells [1] (Homo sapiens, MCF7, 96 h), 9.52; with MDA-MB-231 cells (Homo sapiens, 96 h), 8.60.

With `COC(=O)C[C@H](NC(=O)[C@H](C)NC(=O)[C@@H](NC(=O)OCc1ccccc1)C(C)C)C(=O)CF` [Z-VAD-FMK] (Cbz-Val-Ala-Asp(OMe)-CH2F), in the test with MCF-7 cells [2], the “effect on C-6 induced cell death” value was “did not affect”.

Consider `CCN(CC)CCCC(C)Nc1ccnc2cc(Cl)ccc12` (stereo not shown) [chloroquine, Chloroquine], for which the LC3A/B-II levels entry in the test with LC3A/B-II is “significant increase”.
